Assay results from paper PMC10726441, “Discovery of Tumor-Targeted 6-Methyl Substituted Pemetrexed and Related Antifolates with Selective Loss of RFC Transport” (ACS Medicinal Chemistry Letters, 2023).

Legend:
[1] = system: IGROV1 epithelial ovarian cancer cells; assay: Cell proliferation assay, IGROV1 tumor cells; assay type: cell-based, human; details: for IC50: Homo sapiens, IGROV-1, 96 h, 0-1000 nM, mean (standard error), 3-5 experiments; for potency toward IGROV1 cells compared with IOSE 7576 cells (in words): IGROV1 vs IOSE 7576
Text: (§1) For the tumor cells, except the des-methyl compound 4 with IGROV1 cells, all compounds were inhibitory. […]
(§2) Reagents for biological studies. Leucovorin [(6R,S) 5-formyl tetrahydrofolate] and methotrexate (MTX) was provided by the Drug Development Branch, National Cancer Institute, Bethesda, MD. Other chemicals were obtained from commercial sources in the highest available purities. Pemetrexed (PMX; 1) [N-{4-[2- (2-amino-3,4-dihydro-4-oxo-7H-pyrrolo[2,3-d]pyrimidin-5-yl)ethyl]benzoyl-L-glutamic acid] (Alimta) was purchased from LC Laboratories (Woburn, MA). The syntheses of compounds 2 and 3 were previously described.7, 8 Additional chemicals were purchased from commercial sources in the highest available purities. […]
(§3) KB nasopharyngeal carcinoma cells were obtained from the American Type Culture Collection (Manassas, VA) and IGROV1 (NCI-IGROV1) (passage 5) ovarian adenocarcinoma cells13 were obtained from the Division of Cancer Treatment and Diagnosis, National Cancer Institute (Frederick, MD). Normal ovary cells immortalized with SV40 (IOSE 7576)14 were obtained from the Canadian OvCaRe Cell Bank […]
(§4) (Vancouver, B.C). IGROV1, KB and IOSE 7576 cells were cultured in complete FF-RPMI with 10% fetal bovine serum and 100 units/mL penicillin/100 μg/mL streptomycin, and 2 mM L-glutamine. Cell lines were tested for Mycoplasma by PCR using a Mycloplasma testing kit (Venor™ GeM Mycoplasma Detection Kit, Sigma). Frozen stocks were generated from authenticated Mycoplasma-free cultures.
(§5) For cell proliferation assays, CHO, KB, NCI-IGROV1 and IOSE 7576 cells were plated in 96-well dishes at densities ranging from 2500-5000 cells/well in 200 μL media and treated with a range of inhibitors spanning 0-1000 nM. Experiments with RT16, D4, IGROV1, IOSE 7576 and KB cells used folate-free RPMI 1640 (FF RPMI) media with 10% dialyzed fetal bovine serum and 100 units/mL penicillin/100 μg/mL streptomycin, supplemented with 2 nM leucovorin and 2 mM L-glutamine. FR-mediated drug uptake was assessed in parallel incubations including 200 nM folic acid. For R2/PCFT4, PC43-10 and R2 CHO cells, the medium was FF-RPMI supplemented with 10% dialyzed fetal bovine serum, 100 units/mL penicillin/100 μg/mL streptomycin, 25 nM leucovorin and 2 mM L-glutamine.
(§6) Cells were treated over a 96 h period at 37° C with 5% CO2 and relative cell numbers quantified using the CellTiter-blue cell viability assay (Promega, Madison, WI) and a fluorescence plate reader. Raw data were exported to Excel for analysis and the results were plotted using Graphpad Prism 6.0. Determinations of IC50s were made […]
(§7) assays have been previously described.7, 8, 11, 12, 15-20 […]
(§8) 7, 8, 11, 12, 15-20 Inhibitory effects of the novel analogs on de novo thymidylate biosynthesis and de novo purine nucleotide biosynthesis were tested by incubating drugs with thymidine (10 μM) and adenosine (60 μM), respectively. Incubation with glycine (130 µM) was used to assess the potential involvement of mitochondrial C1 targeted agents.15 To identify multiple metabolic targets, metabolite additions were added in combination.7, 8, 11, 12, 15-19 Finally, to distinguish targeting between the folate-dependent purine biosynthetic enzymes glycinamide ribonucleotide formyltransferase (GARFTase) and 5-aminoimidazole-4-carboxamide (AICA) ribonucleotide formyltransferase (AICARFTase), co-incubation experiments were performed using AICA hydrochloride (320 μM). 7, 8, 11, 12, […]
(§9) Statistics. The biological data reflect at least three experimental replicates. All statistical comparisons were performed using unpaired t-tests. Biological data are presented as mean values +/- standard errors using data without transformation.

[2] = system: RT16 (FRα) CHO cells; assay: Cell proliferation assay, RT16 CHO cells expressing human FRα; assay type: cell-based, Chinese hamster; details: for IC50: Cricetulus griseus, RT16, 96 h, 0-1000 nM, mean (standard error), 3-5 experiments; for RFC/FRα Selectivity ratios: ratio of IC50 PC43-10 (RFC) to IC50 RT16 (FRα)
Text: (§10) To assess the impact of 6-methyl substitutions on the bicyclic scaffolds of the pyrrolo[2,3-d]pyrimidine antifolates 1–4 on RFC transport vis-à-vis PCFT, FRα, and FRβ, we used a unique biological readout for transport activity. This involved proliferation assays with isogenic Chinese hamster ovary (CHO) sublines derived from RFC-, FR-, and PCFT-null MTXRIIOua^R2–4 CHO cells[39],[40] engineered to express the human FRα (RT16),[25] FRβ (D4),[25] RFC (PC43–10),[41] or PCFT (R2/PCFT4).[26],[42] As these CHO cell lines are genetically identical except for their folate transporters, differences in inhibition of cell proliferation by specific cytotoxic antifolates directly reflect transporter specificities.[19],[23]−[31],[42] […]
(§11) Reagents for biological studies. Leucovorin [(6R,S) 5-formyl tetrahydrofolate] and methotrexate (MTX) was provided by the Drug Development Branch, National Cancer Institute, Bethesda, MD. Other chemicals were obtained from commercial sources in the highest available purities. Pemetrexed (PMX; 1) [N-{4-[2- (2-amino-3,4-dihydro-4-oxo-7H-pyrrolo[2,3-d]pyrimidin-5-yl)ethyl]benzoyl-L-glutamic acid] (Alimta) was purchased from LC Laboratories (Woburn, MA). The syntheses of compounds 2 and 3 were previously described.7, 8 Additional chemicals were purchased from commercial sources in the highest available purities.
(§12) Cell Culture. The reduced folate carrier (RFC), proton-coupled folate transporter (SLC46A1; PCFT) and folate receptor (FR) α- and β-null Chinese hamster ovary (CHO) cell line MTXRIIOuaR2-49 was a gift from Dr. Wayne Flintoff (University of Western Ontario, London, ON). Four sublines were derived from the R2 subline by transfection with either RFC, PCFT, FRα, or FRβ, giving rise to PC43-10 (expresses human RFC), 10 R2/PCFT4 (expresses human PCFT),11 RT16 (expresses human FRα), 12 and D4 (expresses FRβ) cells. 12 Isogenic CHO sublines were routinely cultured in α-minimal essential medium (α-MEM) supplemented with 100 units/mL penicillin/100 μg/mL streptomycin, 2 mM L-glutamine and 10% bovine calf serum (Sigma-Aldrich). Transfected sublines of R2 cells were cultured in the presence of 1.5 mg/ml G418. […]
(§13) mM L-glutamine. Cell lines were tested for Mycoplasma by PCR using a Mycloplasma testing kit (Venor™ GeM Mycoplasma Detection Kit, Sigma). Frozen stocks were generated from authenticated Mycoplasma-free cultures.
as §5, §6
(§14) assays have been previously described.7, 8, 11, 12, 15-20
(§15) Using KB cells, additional proliferation assays were performed with metabolite protection in folate- and glycine-free RPMI1640 with 10% dialyzed fetal bovine serum, 2 mM L-glutamine and antibiotics with 2 nM leucovorin to identify the targeted pathway and enzyme(s). 7, 8, 11, 12, 15-20 Inhibitory effects of the novel analogs on de novo thymidylate biosynthesis and de novo purine nucleotide biosynthesis were tested by incubating drugs with thymidine (10 μM) and adenosine (60 μM), respectively. […]

[3] = system: KB nasopharyngeal carcinoma cells; assay: Cell proliferation assay, KB tumor cells; assay type: cell-based, human; details: for IC50: Homo sapiens, 96 h, 0-1000 nM, mean (standard error), 3-5 experiments
Text: as §1, §2, §3, §4, §5, §6, §7, §8, §9

[4] = system: D4 (FRβ) CHO cells; assay: Cell proliferation assay, D4 CHO cells expressing FRβ; assay type: cell-based, Chinese hamster; details: for IC50: Cricetulus griseus, CHO, 96 h, 0-1000 nM, mean (standard error), 3-5 experiments; for RFC/FRβ Selectivity ratios: ratio of IC50 PC43-10 (RFC) to IC50 D4 (FRβ)
Text: as §10, §11, §12, §13, §5, §6, §14, §15

For `Nc1nc2[nH]cc(CCc3ccc(C(=O)N[C@@H](CCC(=O)O)C(=O)O)cc3)c2c(=O)[nH]1` [Compound 1, reference compound], the IC50 [1] was 71 nM, the “potency toward IGROV1 cells compared with IOSE 7576 cells (in words)” value [1] was “more active toward IGROV1 cells” and the IC50 [2] was 14 nM. For the same compound, the IC50 [3] was 9.95 nM and the IC50 [4] was 63.2 nM.

For `Nc1nc2[nH]cc(CCCc3ccc(C(=O)N[C@@H](CCC(=O)O)C(=O)O)cc3)c2c(=O)[nH]1` [Compound 2], the IC50 [1] was 52.7 nM, the “potency toward IGROV1 cells compared with IOSE 7576 cells (in words)” value [1] was “more potent toward IOSE 7576 cells than IGROV1 cells” and the IC50 [2] was 47.9 nM. For the same compound, the IC50 [4] was 3.54 nM.

With `Nc1nc2[nH]cc(CCc3ccc(C(=O)N[C@@H](CCC(=O)O)C(=O)O)s3)c2c(=O)[nH]1` [Compound 3] the IC50 [1] was 320 nM, the “potency toward IGROV1 cells compared with IOSE 7576 cells (in words)” value [1] was “more potent toward IOSE 7576 cells than IGROV1 cells” and the IC50 [2] was 550 nM. The “RFC/FRα Selectivity ratios” value [2] was 0.11, the IC50 [3] was 833 nM and the IC50 [4] was 552 nM. The “RFC/FRβ Selectivity ratios” value [4] was 0.11.

For `Nc1nc2[nH]cc(CCc3ccc(C(=O)N[C@@H](CCC(=O)O)C(=O)O)c(F)c3)c2c(=O)[nH]1` [Compound 4], the “inhibition of IGROV1 cells (in words)” value [1] was “inactive”, the IC50 [1] was over 1000 nM and the IC50 [2] was 6.76 nM. The “RFC/FRα Selectivity ratios” value [2] was 25, the IC50 [3] was 77.3 nM and the IC50 [4] was 8.9 nM. For the same compound, the “RFC/FRβ Selectivity ratios” value [4] was 19.

`Cc1[nH]c2nc(N)[nH]c(=O)c2c1CCc1ccc(C(=O)N[C@@H](CCC(=O)O)C(=O)O)cc1` [Compound 5] was tested, and the IC50 [1] was 9.31 nM, the IC50 [2] was 94.8 nM and the “RFC/FRα Selectivity ratios” value [2] was over 10.5. The IC50 [3] was 28.5 nM, the IC50 [4] was 5.7 nM and the “RFC/FRβ Selectivity ratios” value [4] was over 175.

With `Cc1[nH]c2nc(N)[nH]c(=O)c2c1CCCc1ccc(C(=O)N[C@@H](CCC(=O)O)C(=O)O)cc1` [Compound 6] the “inhibition of IGROV1 cells (in words)” value [1] was “modestly inhibitory”, the IC50 [1] was 750 nM and the IC50 [2] was 63.8 nM. The “RFC/FRα Selectivity ratios” value [2] was over 15.7, the IC50 [3] was 49.9 nM and the IC50 [4] was 2.61 nM. The “RFC/FRβ Selectivity ratios” value [4] was over 383.

With `Cc1[nH]c2nc(N)[nH]c(=O)c2c1CCc1ccc(C(=O)N[C@@H](CCC(=O)O)C(=O)O)s1` [Compound 7] the IC50 [1] was 2.52 nM, the “greater potency than the corresponding 6-desmethyl analogue 3, IGROV1 cells” value ([1]; IGROV1 cells, relative to compound 3) was 127 fold and the IC50 [2] was 2.53 nM. For the same compound, the “RFC/FRα Selectivity ratios” value [2] was over 395, the IC50 [3] was 3.43 nM and the “greater potency than the corresponding 6-desmethyl analogue 3, KB cells” value ([3]; KB cells, relative to compound 3) was 242 fold. For the same compound, the IC50 [4] was 2.98 nM and the “RFC/FRβ Selectivity ratios” value [4] was over 335.

In the case of `Cc1[nH]c2nc(N)[nH]c(=O)c2c1CCc1ccc(C(=O)N[C@@H](CCC(=O)O)C(=O)O)c(F)c1` [Compound 8], the IC50 [1] is reported as 134 nM, the IC50 [2] is reported as 100 nM and the “RFC/FRα Selectivity ratios” value [2] is reported as over 10. The IC50 [3] was 347 nM, the IC50 [4] was 49 nM and the “RFC/FRβ Selectivity ratios” value [4] was over 20.
